Results taken from publication PMC6008299, “Impact of race on dose selection of molecular-targeted agents in early-phase oncology trials” (British Journal of Cancer, 2018).

Assays:
Assay type in all cases: in vivo, human
advanced solid tumours = test: Tumour assessment RECIST 1.1, US study; conditions: of 27 patients
Method: (§1) In both studies, the PK profile of DS-7423 was characterised during cycle 1 on days 1 and 8. For PD analysis, glucose, C-peptide, and Akt phosphorylation were measured in platelet-rich plasma collected at predose, 1, 2, 4, 6, and 24 h after dosing on days 1 and 15. Tumour assessment was performed every two cycles using Response Evaluation Criteria in Solid Tumours (RECIST) version 1.1 in both studies. 18F-Fluoro-2-deoxy-D-glucose positron emission tomography ([18F]-FDG) was performed as an exploratory endpoint at baseline and on day 4.[10]

tumour [18F]-FDG uptake = test: [18F]-FDG-PET metabolic response, Japanese (Asian) patients; conditions: day 4
Method: as §1

[1] = Pharmacokinetics, both studies
Description: In both studies, the PK profile of DS-7423 was characterised during cycle 1 on days 1 and 8. […] The data cut-off for the primary analysis occurred after all patients had either discontinued the study or completed 6 months of study drug treatment. Descriptive statistics were provided for selected demographic, safety, PK, and PD data by dose and time as appropriate. Descriptive statistics on continuous data included means, medians, standard deviations, and ranges, while categorical data were summarised using frequency counts and percentages. No inferential analysis to compare dose levels was performed due to limited sample sizes. The WinNonlin software was used for PK analysis.

[2] = test system: patients with advanced, refractory solid tumours; test: US and Japanese phase I studies combined: safety
Method: We conducted two independent, prospective, first-in-human phase I studies of DS-7423, a dual PI3K/mTOR inhibitor, in patients with advanced, refractory solid tumours in the US (U101 study) and Japan (J102 study); age ≥18 years in the US and ≥20 years in Japan; and Eastern Cooperative Oncology Group performance status (ECOG PS) 0–1. Key exclusion criteria included fasting glucose >126 mg/dL (>7 mmol/L); HbA1c >7.0% for the US and HbA1c >6.5% for Japan; history of diabetes mellitus (type I or II); concomitant use of chronic systemic corticosteroids, or prior toxicities from a dual PI3K/mTOR inhibitor (Supplementary Table 1). Studies were approved by the Institutional Review Board at the participating institutions and regulatory authorities. Written informed consent in English and Japanese was obtained from all patients prior to enrollment. The study followed the Declaration of Helsinki and good clinical practice guidelines and was registered with ClinicalTrials.gov (NCT01364844) and with ClinicalTrials.jp (Japic CTI, 12766).
The primary objective was to assess the safety and tolerability to determine the MTD and RP2D of DS-7423 in US and Japanese patients. Secondary and exploratory objectives were to evaluate PK, tumour response, and PD effects. Treatment-emergent adverse events (TEAE) were graded using the Common Terminology Criteria for Adverse Events version 4.0. A dose-limiting toxicity (DLT) was defined as a grade ≥3 clinically significant toxicity, with the exceptions of grade ≥4 anaemia and prolonged grade 3 neutropenia. Both studies were open-label, phase I dose-escalation studies. In Japan, the study was conducted at a single centre, while the US study was conducted at three sites. In Japan, dose escalation of DS-7423 was guided by the modified continuous reassessment method (mCRM) using a Bayesian logistic regression model following the escalation with overdose control (EWOC) principle at a starting dose of 4 mg once daily.[9] In the US, an accelerated titration design was used at low doses followed by a mCRM with EWOC. Briefly, the dose was escalated based on safety data in a single patient until a grade 2 or higher toxicity was observed during cycle 1 or the DLT period (days 1–28). In both studies, DS-7423 was administered orally once daily until patients experienced unacceptable treatment-related toxicity or disease progression. Prophylactic granulocyte colony-stimulating factor and antiemetics were not permitted during cycle 1.

[3] = Pharmacokinetics in US cohort (U101)
Method: as §1
The data cut-off for the primary analysis occurred after all patients had either discontinued the study or completed 6 months of study drug treatment. Descriptive statistics were provided for selected demographic, safety, PK, and PD data by dose and time as appropriate. Descriptive statistics on continuous data included means, medians, standard deviations, and ranges, while categorical data were summarised using frequency counts and percentages. No inferential analysis to compare dose levels was performed due to limited sample sizes. The WinNonlin software was used for PK analysis.

[4] = dose level 4, US cohort (n = 1)
[5] = dose level 8, US cohort (n = 1)
[6] = dose level 16, US cohort (n = 3)
[7] = dose level 160, US cohort (n = 4)
[8] = dose level 240, US cohort (n = 7)

## CC(=O)N1CCN(c2nc3c(N4CCOCC4)nc(-c4cnc(N)nc4)nc3n2CC(F)(F)F)C[C@H]1C [DS-7423]
Advanced solid tumours
  Patients with tumour shrinkage and durable disease control: 5
Tumour [18F]-FDG uptake
  Patients with partial metabolic response ([18F]-FDG-PET): 36.4%
Tumour [18F]-FDG uptake; of 11 patients
  Patients with partial metabolic response ([18F]-FDG-PET): 4
[1]; 240-mg dose (MTD)
  median half-life: 12 h
[1]; MTD of 240 mg, Caucasian vs Asian
  Difference in AUC and Cmax between the two populations: no significant differences
[1]; across dose groups
  median time to peak concentration (Tmax): 2 to 4 h
[1]; predose concentrations days 15 and 21 of cycle 1 and day 1 of cycle 2
  Drug accumulation: no remarkable drug accumulation
[2]; All (n = 69)
  AST increased (TEAE), incidence: 10.1%
  AST increased (TEAE), n patients: 7
  Abdominal pain (TEAE), incidence: 14.5%
  Abdominal pain (TEAE), n patients: 10
  Back pain (TEAE), incidence: 15.9%
  Back pain (TEAE), n patients: 11
  Blood creatinine increased (TEAE), incidence: 10.1%
  Blood creatinine increased (TEAE), n patients: 7
  Constipation (TEAE), incidence: 18.8%
  Constipation (TEAE), n patients: 13
  Cough (TEAE), incidence: 15.9%
  Cough (TEAE), n patients: 11
  Decreased appetite (TEAE), incidence: 49.3%
  Decreased appetite (TEAE), n patients: 34
  Dehydration (TEAE), incidence: 8.7%
  Dehydration (TEAE), n patients: 6
  Diarrhoea (TEAE), incidence: 56.5%
  Diarrhoea (TEAE), n patients: 39
  Dry mouth (TEAE), incidence: 18.8%
  Dry mouth (TEAE), n patients: 13
  Dysgeusia (TEAE), incidence: 27.5%
  Dysgeusia (TEAE), n patients: 19
  Edema (TEAE), incidence: 17.4%
  Edema (TEAE), n patients: 12
  Fatigue (TEAE), incidence: 55.1%
  Fatigue (TEAE), n patients: 38
  Hyperglycaemia (TEAE), incidence: 17.4%
  Hyperglycaemia (TEAE), n patients: 12
  Lung infection/ pneumonia (TEAE), incidence: 5.8%
  Lung infection/ pneumonia (TEAE), n patients: 4
  Nausea (TEAE), incidence: 56.5%
  Nausea (TEAE), n patients: 39
  Pyrexia (TEAE), incidence: 14.5%
  Pyrexia (TEAE), n patients: 10
  Rash (TEAE), incidence: 33.3%
  Rash (TEAE), n patients: 23
  Stomatitis (TEAE), incidence: 33.3%
  Stomatitis (TEAE), n patients: 23
  Vomiting (TEAE), incidence: 37.7%
  Vomiting (TEAE), n patients: 26
[2]; US and Japan phase I studies, oral once daily
  RP2D: 240 mg/day
[2]; all cohorts
  DS-7423-related ≥grade 3 TEAE: rare
  Grade of nausea, vomiting, and dysgeusia events: grade 1 or 2
[3]; [4]
  Mean AUCtau: 21.86 ng·h/mL
  Mean Cmax: 4 ng/mL
  T1/2: 6 to 7 h
  Tmax: 2 to 4 h
[3]; [5]
  Mean AUCtau: 131 ng·h/mL
  Mean Cmax: 20 ng/mL
  T1/2: 6 to 7 h
  Tmax: 2 to 4 h
[3]; [6]
  Mean AUCtau: 133.5 ng·h/mL
  Mean Cmax: 20 ng/mL
  T1/2: 6 to 7 h
  Tmax: 2 to 4 h
[3]; [7]
  Mean AUCtau: 1180.5 ng·h/mL
  Mean Cmax: 59 ng/mL
  T1/2: 6 to 7 h
  Tmax: 2 to 4 h
[3]; [8]
  Mean AUCtau: 1458.2 ng·h/mL
  Mean Cmax: 92.0 ng/mL
  T1/2: 12 h
  Tmax: 2 to 4 h
